Our source for the IC50 values is patent US20240360165A1, “INHIBITORS OF CYCLIN DEPENDENT KINASE 7 (CDK7)” (Syros Pharmaceuticals, Inc., priority 2016, published 2024).

Where two headings read alike, the source gives them in different places. Where only a bound is given, the exact number is not on record here.

One assay has as its target CDK9/Cyclin T1 complex (Homo sapiens, UniProt P50750). Briefly: CDK9 inhibition assay (Caliper/LabChip EZ Reader kinase assay). The format is biochemical. The note with it: Table 1; CDK9/Cyclin T1 8 nM, ATP 2 mM, 15 min at 27° C. The procedure, abridged:
(§1)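 Activity read as fluorescent peptide conversion on a LabChip EZ Reader. For CDK2/Cyclin E1 (0.5 nM), substrate was 5-FAM-CDK7tide (2 μM) with 2 mM MgCl2; for CDK9/Cyclin T1 (8 nM), 5-FAM-CDK9tide (2 μM) with 10 mM MgCl2.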

Assay [1] addresses T1, CDK12 (aa686-1082)/Cyclin K complex (Homo sapiens, UniProt Q9NYV4).
T1 construct: CDK12 (aa686-1082)/Cyclin K complex
Briefly: CDK12 inhibition assay (Caliper/LabChip EZ Reader kinase assay). The class given is biochemical. The note with it: Table 1; CDK12 (aa686-1082)/Cyclin K 50 nM, ATP 2 mM, 3 hr at 27° C.

The next assay concerns A673 cells. Briefly: Inhibition of proliferation of A673 cells (CyQUANT, 72 hour). The format is cell-based, human. The note with it: A673 cells, 72 hour, CyQUANT, read-out: Inhibition of Proliferation of A673 Cells (calculated IC50). The method, then:
A673 cells are a cell line derived from human […] Ewing's sarcoma. Representative compounds of the invention were tested at different concentrations (from […]; 0.5 log serial dilutions) for their ability to inhibit the proliferation of A673 cells. Known CDK inhibitors dinaciclib or N-((1S,3R)-3-((5-chloro-4-(1H-indol-3-yl)pyrimidin-2-yl)amino)cyclohexyl)-5-((E)-4-(dimethylamino)but-2-enamido)picolinamide and triptolide were used as positive controls. Cells were grown in Dulbecco's Modified Eagle's Medium, +10% FBS+1 mM Sodium Pyruvate. The cells were cultured at 37° C. in a humidified chamber in the presence of 5% CO2. Proliferation assays were conducted over a 72 hour time period. CyQUANT® (Life Technologies, Chicago, IL USA) was used to assess the anti-proliferative effects of the compounds following manufacturer's directions and utilizing the reagents supplied with the CyQUANT® kit.

Assay [2] addresses CDK7/Cyclin H/MAT1 complex (Homo sapiens, UniProt P50613). Briefly: CDK7 inhibition assay (Caliper/LabChip EZ Reader kinase assay). The class given is biochemical. The note with it: Table 1; CDK7/Cyclin H/MAT1 6 nM, ATP 2 mM, 35 min at 27° C. The procedure, abridged:
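A Perkin Elmer Caliper/LabChip EZ Reader (Waltham, MA) platform served as the basis for this CDK7 kinase inhibition assay. The work was carried out by Biortus Biosciences, located in Jiangyin, Jiangsu Province, P.R. of China. Each CDK studied had its own kinase assay, and compounds were evaluated for their ability to block CDK7 activity.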

A further assay addresses CDK2/Cyclin E1 complex (Homo sapiens, UniProt P24941). Briefly: CDK2 inhibition assay (Caliper/LabChip EZ Reader kinase assay). The format is biochemical. The note with it: Table 1; CDK2/Cyclin E1 0.5 nM, ATP 2 mM, 35 min at 27° C. The gist of the method: as §1

T1 sequence (Q9NYV4 686-1082, species assumed): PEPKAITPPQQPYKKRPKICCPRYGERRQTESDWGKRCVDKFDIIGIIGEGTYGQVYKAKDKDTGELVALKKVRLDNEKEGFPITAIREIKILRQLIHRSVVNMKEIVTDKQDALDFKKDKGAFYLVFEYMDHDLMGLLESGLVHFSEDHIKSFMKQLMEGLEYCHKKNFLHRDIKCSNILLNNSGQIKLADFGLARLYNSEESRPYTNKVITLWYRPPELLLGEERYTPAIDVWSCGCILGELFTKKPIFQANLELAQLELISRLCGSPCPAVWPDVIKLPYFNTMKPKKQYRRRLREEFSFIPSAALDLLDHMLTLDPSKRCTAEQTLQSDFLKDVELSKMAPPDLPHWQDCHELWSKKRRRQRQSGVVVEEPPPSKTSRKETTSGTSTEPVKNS
T1 sequence (O75909 whole entry partner, species assumed, the tested form may be a part): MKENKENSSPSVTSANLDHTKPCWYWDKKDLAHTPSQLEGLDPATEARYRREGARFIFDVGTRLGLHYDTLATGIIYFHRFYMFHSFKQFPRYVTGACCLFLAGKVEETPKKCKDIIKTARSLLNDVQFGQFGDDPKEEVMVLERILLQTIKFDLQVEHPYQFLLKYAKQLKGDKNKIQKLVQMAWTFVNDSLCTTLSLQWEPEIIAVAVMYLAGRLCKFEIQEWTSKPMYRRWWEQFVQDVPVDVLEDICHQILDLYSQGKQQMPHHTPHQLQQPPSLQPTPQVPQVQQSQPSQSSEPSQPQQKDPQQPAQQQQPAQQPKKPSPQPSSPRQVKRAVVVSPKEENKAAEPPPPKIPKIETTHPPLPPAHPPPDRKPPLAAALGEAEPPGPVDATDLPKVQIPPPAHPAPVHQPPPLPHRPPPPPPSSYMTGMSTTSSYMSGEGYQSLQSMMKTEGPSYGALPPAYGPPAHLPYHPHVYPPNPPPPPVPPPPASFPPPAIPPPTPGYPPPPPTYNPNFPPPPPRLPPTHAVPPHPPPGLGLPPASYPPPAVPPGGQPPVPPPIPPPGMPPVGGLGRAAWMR
Sequence of CDK9/Cyclin T1 complex (P50750 whole entry, species assumed): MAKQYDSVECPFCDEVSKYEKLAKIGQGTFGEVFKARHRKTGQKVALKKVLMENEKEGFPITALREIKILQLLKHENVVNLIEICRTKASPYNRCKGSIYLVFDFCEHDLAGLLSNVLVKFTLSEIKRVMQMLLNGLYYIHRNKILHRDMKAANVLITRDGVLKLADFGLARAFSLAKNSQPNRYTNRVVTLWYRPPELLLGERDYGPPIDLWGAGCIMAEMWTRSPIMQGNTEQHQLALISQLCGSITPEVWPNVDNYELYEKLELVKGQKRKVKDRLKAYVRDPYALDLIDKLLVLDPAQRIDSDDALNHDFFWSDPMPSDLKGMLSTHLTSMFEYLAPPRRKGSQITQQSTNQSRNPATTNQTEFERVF
Sequence of CDK9/Cyclin T1 complex (O60563 whole entry partner, species assumed): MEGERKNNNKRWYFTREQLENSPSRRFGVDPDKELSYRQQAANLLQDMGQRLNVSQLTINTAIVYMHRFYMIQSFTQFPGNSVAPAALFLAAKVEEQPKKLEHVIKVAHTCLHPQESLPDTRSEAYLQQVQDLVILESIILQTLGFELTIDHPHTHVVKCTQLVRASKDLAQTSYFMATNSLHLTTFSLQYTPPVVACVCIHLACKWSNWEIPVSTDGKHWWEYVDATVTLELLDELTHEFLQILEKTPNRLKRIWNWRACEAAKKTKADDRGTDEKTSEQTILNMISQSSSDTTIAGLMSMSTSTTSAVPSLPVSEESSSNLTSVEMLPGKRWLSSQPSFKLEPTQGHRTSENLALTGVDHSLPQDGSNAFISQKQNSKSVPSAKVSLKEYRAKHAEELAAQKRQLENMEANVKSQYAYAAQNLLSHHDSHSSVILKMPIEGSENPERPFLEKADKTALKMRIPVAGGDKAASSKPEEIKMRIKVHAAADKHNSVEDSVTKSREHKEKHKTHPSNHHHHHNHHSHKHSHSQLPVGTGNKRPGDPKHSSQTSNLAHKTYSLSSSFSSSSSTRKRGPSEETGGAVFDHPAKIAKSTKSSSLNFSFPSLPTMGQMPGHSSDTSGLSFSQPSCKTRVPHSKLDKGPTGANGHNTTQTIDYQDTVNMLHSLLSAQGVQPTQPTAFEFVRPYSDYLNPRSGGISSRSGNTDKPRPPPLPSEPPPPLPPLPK
Sequence of CDK7/Cyclin H/MAT1 complex (P50613 whole entry, species assumed): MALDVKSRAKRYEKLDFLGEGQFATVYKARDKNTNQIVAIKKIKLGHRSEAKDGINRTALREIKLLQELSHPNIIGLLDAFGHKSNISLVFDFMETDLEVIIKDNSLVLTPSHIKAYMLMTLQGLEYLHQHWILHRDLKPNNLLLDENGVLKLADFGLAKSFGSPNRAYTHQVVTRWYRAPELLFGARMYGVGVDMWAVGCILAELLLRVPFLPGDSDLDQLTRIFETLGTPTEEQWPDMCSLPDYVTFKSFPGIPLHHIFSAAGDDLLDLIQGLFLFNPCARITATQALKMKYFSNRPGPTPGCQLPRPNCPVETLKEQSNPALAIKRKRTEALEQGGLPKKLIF
Sequence of CDK7/Cyclin H/MAT1 complex (P51946 whole entry partner, species assumed): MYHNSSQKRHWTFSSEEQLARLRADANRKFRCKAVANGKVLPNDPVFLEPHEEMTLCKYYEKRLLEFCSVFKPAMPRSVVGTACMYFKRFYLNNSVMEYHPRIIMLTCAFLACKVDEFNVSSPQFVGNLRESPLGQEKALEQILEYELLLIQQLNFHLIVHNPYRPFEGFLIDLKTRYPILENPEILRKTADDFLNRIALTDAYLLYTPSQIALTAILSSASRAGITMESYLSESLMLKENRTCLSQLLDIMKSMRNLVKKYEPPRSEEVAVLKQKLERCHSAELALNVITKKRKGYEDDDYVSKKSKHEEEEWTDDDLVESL
Sequence of CDK7/Cyclin H/MAT1 complex (P51948 whole entry partner, species assumed): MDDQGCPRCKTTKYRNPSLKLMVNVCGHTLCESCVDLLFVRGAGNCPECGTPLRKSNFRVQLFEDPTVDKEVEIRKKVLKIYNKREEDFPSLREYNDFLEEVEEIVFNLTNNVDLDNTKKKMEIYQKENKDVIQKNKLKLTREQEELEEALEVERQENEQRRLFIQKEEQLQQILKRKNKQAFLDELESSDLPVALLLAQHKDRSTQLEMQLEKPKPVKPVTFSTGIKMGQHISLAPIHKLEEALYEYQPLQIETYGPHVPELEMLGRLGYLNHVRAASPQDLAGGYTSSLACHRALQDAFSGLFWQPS

Consider `FC(F)(F)c1cnc(N[C@H]2CCCNC2)nc1-c1c[nH]c2cc(-c3ncc[nH]3)ccc12` [Compound 202, 4-[6-(1H-imidazol-2-yl)-1H-indol-3-yl]-N-[(3S)-3-piperidyl]-5-(trifluoromethyl) pyrimidin-2-amine], for which the IC50 was 200 to 5000 nM against CDK9/Cyclin T1 complex; more than 5000 nM in assay [1]; 20 to 200 nM in the assay with A673 cells (Homo sapiens, A673, 72 h); less than 20 nM in assay [2]; 200 to 5000 nM at CDK2/Cyclin E1 complex.
Consider `O[C@H]1CNC[C@@H](Nc2ncc(C(F)(F)F)c(-c3c[nH]c4ccccc34)n2)C1` [Compound 203, (3R,5S)-5-[[4-(1H-indol-3-yl)-5-(trifluoromethyl)pyrimidin-2-yl]amino]piperidin-3-ol], for which the IC50 on CDK9/Cyclin T1 complex is 200 to 5000 nM; in assay [1], 200 to 5000 nM; with A673 cells (Homo sapiens, A673, 72 h) it was less than 20 nM; in assay [2] it was less than 20 nM; on CDK2/Cyclin E1 complex, 200 to 5000 nM.
In the case of `O=C(c1ccc2c(-c3nc(N[C@H]4CCCNC4)ncc3C(F)(F)F)c[nH]c2c1)N1CC[C@H](O)C1` [Compound 204, [(3S)-3-hydroxypyrrolidin-1-yl]-[3-[2-[[(3S)-3-piperidyl]amino]-5-(trifluoromethyl)pyrimidin-4-yl]-1H-indol-6-yl]methanone], the IC50 against CDK9/Cyclin T1 complex is more than 5000 nM; in assay [1], 200 to 5000 nM; in the assay with A673 cells (Homo sapiens, A673, 72 h), 200 to 5000 nM; in assay [2] it was less than 20 nM; at CDK2/Cyclin E1 complex, more than 5000 nM.
Consider `O=C(c1ccc2c(-c3nc(N[C@H]4CCCNC4)ncc3C(F)(F)F)c[nH]c2c1)N1CC[C@@H](O)C1` [Compound 205, [(3R)-3-hydroxypyrrolidin-1-yl]-[3-[2-[[(3S)-3-piperidyl]amino]-5-(trifluoromethyl)pyrimidin-4-yl]-1H-indol-6-yl]methanone], for which the IC50 was more than 5000 nM at CDK9/Cyclin T1 complex; 200 to 5000 nM in assay [1]; 200 to 5000 nM in the assay on A673 cells (Homo sapiens, A673, 72 h); less than 20 nM in assay [2]; more than 5000 nM at CDK2/Cyclin E1 complex.
Turning to `FCCc1cnc(N[C@H]2CCCNC2)nc1-c1c[nH]c2ccccc12` [Compound 206], the IC50 at CDK9/Cyclin T1 complex was 200 to 5000 nM; in assay [1] it was 200 to 5000 nM; in the assay with A673 cells (Homo sapiens, A673, 72 h), 200 to 5000 nM; in assay [2], 20 to 200 nM; at CDK2/Cyclin E1 complex it was more than 5000 nM.
With `O[C@H]1CC[C@@H](c2cccc3c(-c4nc(N[C@H]5CCCNC5)ncc4C(F)(F)F)c[nH]c32)CC1` [Compound 207], the IC50 at CDK9/Cyclin T1 complex was 200 to 5000 nM; in assay [1] it was 200 to 5000 nM; in the assay with A673 cells (Homo sapiens, A673, 72 h), less than 20 nM; in assay [2], less than 20 nM; against CDK2/Cyclin E1 complex, 200 to 5000 nM.
As for `CC(=O)c1cnc(N[C@H]2CCCNC2)nc1-c1c[nH]c2ccccc12` [Compound 208], the IC50 against CDK9/Cyclin T1 complex is more than 5000 nM; in assay [1] it was 200 to 5000 nM; in the assay with A673 cells (Homo sapiens, A673, 72 h), 20 to 200 nM; in assay [2], 20 to 200 nM; on CDK2/Cyclin E1 complex it was more than 5000 nM.
With `CC[C@@H]1CC[C@H](Nc2ncc(C(F)(F)F)c(-c3c[nH]c4ccccc34)n2)CN1` [Compound 211], the IC50 against CDK9/Cyclin T1 complex was 200 to 5000 nM; in assay [1] it was 200 to 5000 nM; in the assay with A673 cells (Homo sapiens, A673, 72 h), 20 to 200 nM; in assay [2], 20 to 200 nM; against CDK2/Cyclin E1 complex, 200 to 5000 nM.
Turning to `FC(F)(F)c1cnc(N[C@H]2CCC3(CC3)NC2)nc1-c1c[nH]c2ccccc12` [Compound 212], the IC50 on CDK9/Cyclin T1 complex is 200 to 5000 nM; in assay [1], 200 to 5000 nM; in the assay with A673 cells (Homo sapiens, A673, 72 h), less than 20 nM; in assay [2], less than 20 nM; on CDK2/Cyclin E1 complex it was 200 to 5000 nM.
Regarding `CC(C)(O)Cn1cc(-c2ccc3c(-c4nc(N[C@H]5CCCNC5)ncc4C(F)(F)F)c[nH]c3c2)cn1` [Compound 214, 2-methyl-1-[4-[3-[2-[[(3S)-3-piperidyl]amino]-5-(trifluoromethyl)pyrimidin-4-yl]-1H-indol-6-yl]pyrazol-1-yl] propan-2-ol], the IC50 is 200 to 5000 nM against CDK9/Cyclin T1 complex; 200 to 5000 nM in assay [1]; 20 to 200 nM in the assay with A673 cells (Homo sapiens, A673, 72 h); 20 to 200 nM in assay [2]; 200 to 5000 nM against CDK2/Cyclin E1 complex.
On to `FC(F)(F)c1cnc(NC2CNCc3ccccc32)nc1-c1c[nH]c2ccccc12` (stereo not drawn) [Compound 215], for which the IC50 on CDK9/Cyclin T1 complex was more than 5000 nM; in assay [1] it was more than 5000 nM; in the assay on A673 cells (Homo sapiens, A673, 72 h), 200 to 5000 nM; in assay [2], 20 to 200 nM; at CDK2/Cyclin E1 complex, more than 5000 nM.
Consider `FC(F)(F)c1cnc(NC2CNCc3ccccc32)nc1-c1c[nH]c2ccccc12` (stereo not drawn) [Compound 216], for which the IC50 on CDK9/Cyclin T1 complex was more than 5000 nM; in assay [1], more than 5000 nM; with A673 cells, 200 to 5000 nM; in assay [2] it was 200 to 5000 nM; on CDK2/Cyclin E1 complex, 200 to 5000 nM.
For `CC[C@H]1CC[C@H](Nc2ncc(C(F)(F)F)c(-c3c[nH]c4ccccc34)n2)CN1` [Compound 217], the IC50 on CDK9/Cyclin T1 complex is 200 to 5000 nM; in assay [1] it was 200 to 5000 nM; with A673 cells (Homo sapiens, A673, 72 h), 20 to 200 nM; in assay [2], less than 20 nM; at CDK2/Cyclin E1 complex, 200 to 5000 nM.
`C=Cc1cnc(N[C@H]2CCCNC2)nc1-c1c[nH]c2ccccc12` [Compound 218]: the IC50 against CDK9/Cyclin T1 complex was 200 to 5000 nM; in assay [1], 200 to 5000 nM; with A673 cells (Homo sapiens, A673, 72 h), 20 to 200 nM; in assay [2] it was less than 20 nM; against CDK2/Cyclin E1 complex, 200 to 5000 nM.
As to `CS(=O)(=O)Cc1ccc2c(-c3nc(N[C@H]4CCCNC4)ncc3C(F)(F)F)c[nH]c2c1` [Compound 219, 4-[6-(methylsulfonylmethyl)-1H-indol-3-yl]-N-[(3S)-3-piperidyl]-5-(trifluoromethyl) pyrimidin-2-amine], the IC50 against CDK9/Cyclin T1 complex is 200 to 5000 nM; in assay [1] it was 200 to 5000 nM; in the assay with A673 cells (Homo sapiens, A673, 72 h), 20 to 200 nM; in assay [2], less than 20 nM; on CDK2/Cyclin E1 complex, 200 to 5000 nM.
In the case of `FC(F)(F)c1cnc(NC2C3CCC2NC3)nc1-c1c[nH]c2ccccc12` (stereo not drawn) [Compound 222, N-[4-(1H-indol-3-yl)-5-(trifluoromethyl)pyrimidin-2-yl]-3-azabicyclo [2.2.1]heptan-7-amine], the IC50 against CDK9/Cyclin T1 complex is 200 to 5000 nM; in assay [1], 200 to 5000 nM; with A673 cells (Homo sapiens, A673, 72 h), 20 to 200 nM; in assay [2], 20 to 200 nM; at CDK2/Cyclin E1 complex, 200 to 5000 nM.
Take `FC(F)(F)c1cnc(N[C@H]2CCCNC2)nc1-c1c[nH]c2cc(-c3cccnc3)ccc12` [Compound 223, N-[(3S)-3-piperidyl]-4-[6-(3-pyridyl)-1H-indol-3-yl]-5-(trifluoromethyl) pyrimidin-2-amine]: the IC50 on CDK9/Cyclin T1 complex was 200 to 5000 nM; in assay [1] it was 200 to 5000 nM; in the assay on A673 cells (Homo sapiens, A673, 72 h), 20 to 200 nM; in assay [2], less than 20 nM; on CDK2/Cyclin E1 complex, 200 to 5000 nM.
On to `FC(F)(F)c1cnc(N[C@H]2CCCNC2)nc1-c1c[nH]c2cc(-c3ccncc3)ccc12` [Compound 224, N-[(3S)-3-piperidyl]-4-[6-(4-pyridyl)-1H-indol-3-yl]-5-(trifluoromethyl) pyrimidin-2-amine], for which the IC50 against CDK9/Cyclin T1 complex is 200 to 5000 nM; in assay [1] it was 200 to 5000 nM; in the assay on A673 cells (Homo sapiens, A673, 72 h), 20 to 200 nM; in assay [2], less than 20 nM; on CDK2/Cyclin E1 complex it was 200 to 5000 nM.
Regarding `Cn1cc(-c2ccc3c(-c4nc(N[C@H]5CCCNC5)ncc4C(F)(F)F)c[nH]c3c2)cc1C#N` [Compound 225, 1-methyl-4-[3-[2-[[(3S)-3-piperidyl]amino]-5-(trifluoromethyl)pyrimidin-4-yl]-1H-indol-6-yl] pyrrole-2-carbonitrile], the IC50 at CDK9/Cyclin T1 complex is 200 to 5000 nM; in assay [1] it was 200 to 5000 nM; in the assay on A673 cells (Homo sapiens, A673, 72 h), 20 to 200 nM; in assay [2], less than 20 nM; on CDK2/Cyclin E1 complex it was 200 to 5000 nM.
Regarding `Cc1nn(C)cc1-c1ccc2c(-c3nc(N[C@H]4CCCNC4)ncc3C(F)(F)F)c[nH]c2c1` [Compound 226, 4-[6-(1,3-dimethylpyrazol-4-yl)-1H-indol-3-yl]-N-[(3S)-3-piperidyl]-5-(trifluoromethyl) pyrimidin-2-amine], the IC50 against CDK9/Cyclin T1 complex was 200 to 5000 nM; in assay [1], 200 to 5000 nM; with A673 cells (Homo sapiens, A673, 72 h), less than 20 nM; in assay [2], less than 20 nM; at CDK2/Cyclin E1 complex, 200 to 5000 nM.
Consider `Cc1c(-c2ccc3c(-c4nc(N[C@H]5CCCNC5)ncc4C(F)(F)F)c[nH]c3c2)cnn1C` [Compound 227, 4-[6-(1,5-dimethylpyrazol-4-yl)-1H-indol-3-yl]-N-[(3S)-3-piperidyl]-5-(trifluoromethyl) pyrimidin-2-amine], for which the IC50 against CDK9/Cyclin T1 complex was 200 to 5000 nM; in assay [1], 200 to 5000 nM; in the assay on A673 cells (Homo sapiens, A673, 72 h), 20 to 200 nM; in assay [2], less than 20 nM; at CDK2/Cyclin E1 complex, 200 to 5000 nM.
